Measurements published in patent US20260317324A1, “BIFUNCTIONAL COMPOUNDS FOR DEGRADING BRAF VIA UBIQUITIN PROTEOSOME PATHWAY” (Nurix Therapeutics, Inc., priority 2023, published 2026).

Assays:
Assay type in all cases: cell-based
[1] = target: T1, BRAF G469A (Homo sapiens, UniProt P15056, G469A); experiment: BRAF HiBiT degradation assay, C-terminal HiBiT-tagged BRAF G469A overexpressed in HCT-116 BRAF−/− cells (clone 34), Nano-Glo HiBiT Lytic assay; settings: Class 2, BRAF G469A; for DC50: DC50 at 50%: fitted conc. at Y=50; for Dmax: HCT-116, percentage protein degraded at maximal compound effect relative to DMSO
T1 construct: Horizon Discovery (HCT-116 BRAF−/− cells); host or cells: HCT-116 BRAF−/− cells, clone 34, lentiviral transduction
T1 sequence (P15056 whole entry G469A): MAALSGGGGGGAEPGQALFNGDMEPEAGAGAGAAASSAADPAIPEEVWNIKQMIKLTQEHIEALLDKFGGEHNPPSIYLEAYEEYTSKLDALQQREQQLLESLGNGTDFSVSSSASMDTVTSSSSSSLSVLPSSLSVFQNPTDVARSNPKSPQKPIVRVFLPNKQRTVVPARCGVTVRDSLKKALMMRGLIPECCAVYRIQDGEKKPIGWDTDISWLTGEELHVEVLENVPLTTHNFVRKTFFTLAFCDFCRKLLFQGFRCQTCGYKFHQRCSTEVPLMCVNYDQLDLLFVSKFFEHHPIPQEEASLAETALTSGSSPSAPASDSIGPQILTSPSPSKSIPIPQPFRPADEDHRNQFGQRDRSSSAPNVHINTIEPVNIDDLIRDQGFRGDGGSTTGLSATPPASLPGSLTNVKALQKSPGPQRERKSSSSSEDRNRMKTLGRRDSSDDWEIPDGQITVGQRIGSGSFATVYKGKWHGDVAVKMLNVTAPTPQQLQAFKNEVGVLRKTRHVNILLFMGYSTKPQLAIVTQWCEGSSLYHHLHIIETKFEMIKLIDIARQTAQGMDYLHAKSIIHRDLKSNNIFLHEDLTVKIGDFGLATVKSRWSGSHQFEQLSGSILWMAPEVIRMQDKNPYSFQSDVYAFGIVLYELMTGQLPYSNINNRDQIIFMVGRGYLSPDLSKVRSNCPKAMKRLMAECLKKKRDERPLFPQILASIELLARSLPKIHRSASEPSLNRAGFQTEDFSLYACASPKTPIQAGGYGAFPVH
Method in brief: (§1)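 HCT-116 BRAF−/− cells stably expressing the tagged mutant were seeded at 3,000 cells/well and grown 24 h at 37 °C before an 11-point half-log series from 1 μM to 0.01 nM, run in duplicate at 0.2% DMSO. Lytic HiBiT luminescence gave % protein remaining versus DMSO controls; DC50 was the fitted concentration at 50%.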

[2] = target: T2, BRAF G466V (Homo sapiens, UniProt P15056, G466V); experiment: BRAF HiBiT degradation assay, C-terminal HiBiT-tagged BRAF G466V overexpressed in HCT-116 BRAF−/− cells (clone 8), Nano-Glo HiBiT Lytic assay; settings: BRAF G466V; for DC50: DC50 at 50%: fitted conc. at Y=50; for Dmax: HCT-116, percentage protein degraded at maximal compound effect relative to DMSO
T2 construct: Horizon Discovery (HCT-116 BRAF−/− cells); host or cells: HCT-116 BRAF−/− cells, clone 8, lentiviral transduction
T2 sequence (P15056 whole entry G466V): as the sequence (P15056 whole entry G469A) above, with G466V, A469G counted along it
Method in brief: as §1

[3] = target: T3, BRAF V600E (Homo sapiens, UniProt P15056, V600E); experiment: BRAF HiBiT degradation assay, C-terminal HiBiT-tagged BRAF V600E A375 cells (clone 1F10), Nano-Glo HiBiT Lytic assay; settings: A375 (BRAF V600E); for DC50: DC50 at 50%: fitted conc. at Y=50; for Dmax: A-375, percentage protein degraded at maximal compound effect relative to DMSO
T3 construct: endogenous C-terminal HiBiT fusion tag on BRAF V600E allele; endogenous in cells; host or cells: A375 clone 1F10 (CRISPR-Cas9 knock-in of the HiBiT tag; parental A375 from ATCC)
T3 sequence (P15056 whole entry V600E, the tested form may be a part): as the sequence (P15056 whole entry G469A) above, with A469G, V600E counted along it
Method in brief: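 A375 cells with CRISPR knock-in C-terminal HiBiT on endogenous BRAF V600E (clone 1F10) were seeded and cultured 24 h at 37 °C, then dosed with an 11-point half-log series (1 μM to 0.01 nM, duplicate, 0.2% DMSO). Lytic HiBiT luminescence gave % protein remaining; DC50 was the fitted concentration at 50%.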

[4] = target: T4, BRAF D594G (Homo sapiens, UniProt P15056, D594G); experiment: BRAF HiBiT degradation assay, C-terminal HiBiT-tagged BRAF D594G overexpressed in HCT-116 BRAF−/− cells (clone 63), Nano-Glo HiBiT Lytic assay; settings: BRAF D594G; for DC50: DC50 at 50%: fitted conc. at Y=50; for Dmax: HCT-116, percentage protein degraded at maximal compound effect relative to DMSO
T4 construct: Horizon Discovery (HCT-116 BRAF−/− cells); host or cells: HCT-116 BRAF−/− cells, clone 63, lentiviral transduction
T4 sequence (P15056 whole entry D594G): as the sequence (P15056 whole entry G469A) above, with A469G, D594G counted along it
Method in brief: as §1

SMILES | DC50 [1] | Dmax [1] | DC50 [2] | Dmax [2] | DC50 [3] | Dmax [3] | DC50 [4] | Dmax [4]
CCCS(=O)(=O)Nc1cccc(-c2nc(C(C)(C)C)sc2-c2ccnc(Nc3ccc(N4CCN(CC5CCN(c6ccc([C@@H]7CCC(=O)NC7=O)cc6)CC5)CC4)cc3)n2)c1F [Compound 58, N-[3-(2-tert-butyl-5-{2-[(4-{4-[(1-{4-[(3S)-2,6-dioxopiperidin-3-yl]phenyl}piperidin-4-yl)methyl]piperazin-1-yl}phenyl)amino]pyrimidin-4-yl}-1,3-thiazol-4-yl)-2-fluorophenyl]propane-1-sulfonamide] | > 500 nM | 30 to 70% | 50 to 500 nM | 30 to 70% | 10 to 50 nM | > 70% | > 500 nM | 30 to 70%
CCCS(=O)(=O)Nc1cccc(-c2nc(C(C)(C)C)sc2-c2ccnc(Nc3ccc(N4CCN(CC5CCN(c6ccc([C@H]7CCC(=O)NC7=O)cc6)CC5)CC4)cc3)n2)c1F [Compound 59, N-[3-(2-tert-butyl-5-{2-[(4-{4-[(1-{4-[(3R)-2,6-dioxopiperidin-3-yl]phenyl}piperidin-4-yl)methyl]piperazin-1-yl}phenyl)amino]pyrimidin-4-yl}-1,3-thiazol-4-yl)-2-fluorophenyl]propane-1-sulfonamide] | > 500 nM | 30 to 70% | < 10 nM | > 70% | 10 to 50 nM | > 70% | 10 to 50 nM | 30 to 70%
CCCS(=O)(=O)Nc1cccc(-c2nc(C)sc2-c2ccnc(Nc3ccc(N4CCN(CC5CCN(c6ccc([C@@H]7CCC(=O)NC7=O)cc6)CC5)CC4)cn3)n2)c1F [Compound 61, N-[3-(5-{2-[(5-{4-[(1-{4-[(3S)-2,6-dioxopiperidin-3-yl]phenyl}piperidin-4-yl)methyl]piperazin-1-yl}pyridin-2-yl)amino]pyrimidin-4-yl}-2-methyl-1,3-thiazol-4-yl)-2-fluorophenyl]propane-1-sulfonamide] | < 10 nM | 30 to 70% | > 500 nM | 30 to 70% | < 10 nM | > 70% | > 500 nM | 30 to 70%
CCCS(=O)(=O)Nc1cccc(-c2nc(C(C)(C)C)sc2-c2ccnc(Nc3cnn(C4CCN(CC5CCN(c6ccc(C(=O)N[C@@H]7CCC(=O)NC7=O)nc6)CC5)CC4)c3)n2)c1F [Compound 67, 5-{4-[(4-{4-[(4-{2-tert-butyl-4-[2-fluoro-3-(propane-1-sulfonamido)phenyl]-1,3-thiazol-5-yl}pyrimidin-2-yl)amino]-1H-pyrazol-1-yl}piperidin-1-yl)methyl]piperidin-1-yl}-N-[(3R)-2,6-dioxopiperidin-3-yl]pyridine-2-carboxamide] | > 500 nM | < 30% | > 500 nM | < 30% | < 10 nM | 30 to 70% | > 500 nM | 30 to 70%
CCCS(=O)(=O)Nc1cccc(-c2nc(C(C)(C)C)sc2-c2ccnc(Nc3ccc(N4CCN(CC5CCN(c6ccc([C@H]7CCC(=O)NC7=O)cc6)CC5)CC4)c(F)c3)n2)c1F [Compound 87, N-[3-(2-tert-butyl-5-{2-[(4-{4-[(1-{4-[(3R)-2,6-dioxopiperidin-3-yl]phenyl}piperidin-4-yl)methyl]piperazin-1-yl}-3-fluorophenyl)amino]pyrimidin-4-yl}-1,3-thiazol-4-yl)-2-fluorophenyl]propane-1-sulfonamide] | > 500 nM | 30 to 70% | 10 to 50 nM | 30 to 70% | 10 to 50 nM | > 70% | > 500 nM | 30 to 70%
CCCS(=O)(=O)Nc1cccc(-c2nc(C(C)(C)C)sc2-c2ccnc(Nc3ccc(C4CCN(CC5CCN(c6ccc([C@H]7CCC(=O)NC7=O)cc6)CC5)CC4)cc3)n2)c1F [Compound 89, N-[3-(2-tert-butyl-5-{2-[(4-{1-[(1-{4-[(3R)-2,6-dioxopiperidin-3-yl]phenyl}piperidin-4-yl)methyl]piperidin-4-yl}phenyl)amino]pyrimidin-4-yl}-1,3-thiazol-4-yl)-2-fluorophenyl]propane-1-sulfonamide] | > 500 nM | 30 to 70% | > 500 nM | 30 to 70% | 10 to 50 nM | > 70% | > 500 nM | 30 to 70%
CCN(C)S(=O)(=O)Nc1cccc(-c2nc(C(C)(C)C)sc2-c2ccnc(Nc3ccc(N4CCN(CC5CCN(c6ccc([C@@H]7CCC(=O)NC7=O)cc6)CC5)CC4)cn3)n2)c1F [Compound 127, (3S)-3-{4-[4-({4-[6-({4-[2-tert-butyl-4-(3-{[ethyl(methyl)sulfamoyl]amino}-2-fluorophenyl)-1,3-thiazol-5-yl]pyrimidin-2-yl}amino)pyridin-3-yl]piperazin-1-yl}methyl)piperidin-1-yl]phenyl}piperidine-2,6-dione] | 10 to 50 nM | 30 to 70% | 10 to 50 nM | 30 to 70% | 10 to 50 nM | > 70% | < 10 nM | 30 to 70%
CCN(C)S(=O)(=O)Nc1cccc(-c2nc(C(C)(C)C)sc2-c2ccnc(Nc3ccc(N4CCN(CC5CCN(c6ccc([C@H]7CCC(=O)NC7=O)cc6)CC5)CC4)cn3)n2)c1F [Compound 128, (3R)-3-{4-[4-({4-[6-({4-[2-tert-butyl-4-(3-{[ethyl(methyl)sulfamoyl]amino}-2-fluorophenyl)-1,3-thiazol-5-yl]pyrimidin-2-yl}amino)pyridin-3-yl]piperazin-1-yl}methyl)piperidin-1-yl]phenyl}piperidine-2,6-dione] | > 500 nM | < 30% | 50 to 500 nM | 30 to 70% | 50 to 500 nM | > 70% | > 500 nM | 30 to 70%
CCCS(=O)(=O)Nc1cccc(-c2nc(C(C)(C)C)sc2-c2ccnc(NCC(C)(C)C3CCN(CC4CCN(c5ccc(C(=O)N[C@H]6CCC(=O)NC6=O)nc5)CC4)CC3)n2)c1F [Compound 146, 5-{4-[(4-{1-[(4-{2-tert-butyl-4-[2-fluoro-3-(propane-1-sulfonamido)phenyl]-1,3-thiazol-5-yl}pyrimidin-2-yl)amino]-2-methylpropan-2-yl}piperidin-1-yl)methyl]piperidin-1-yl}-N-[(3S)-2,6-dioxopiperidin-3-yl]pyridine-2-carboxamide] | > 500 nM | 30 to 70% | < 10 nM | 30 to 70% | 50 to 500 nM | 30 to 70% | > 500 nM | 30 to 70%
CCCS(=O)(=O)Nc1cccc(-c2nc(C(C)(C)C)sc2-c2ccnc(NCC3CCN(CC4CCN(c5ccc(C(=O)N[C@H]6CCC(=O)NC6=O)nc5)CC4)CC3)n2)c1F [Compound 147, 5-{4-[(4-{[(4-{2-tert-butyl-4-[2-fluoro-3-(propane-1-sulfonamido)phenyl]-1,3-thiazol-5-yl}pyrimidin-2-yl)amino]methyl}piperidin-1-yl)methyl]piperidin-1-yl}-N-[(3S)-2,6-dioxopiperidin-3-yl]pyridine-2-carboxamide] | > 500 nM | < 30% | > 500 nM | < 30% | 50 to 500 nM | 30 to 70% | > 500 nM | < 30%
CCCS(=O)(=O)Nc1cccc(-c2nc(-c3ccc(N4CCN(CC5CCN(c6ccc([C@@H]7CCC(=O)NC7=O)cc6)CC5)CC4)cc3)sc2-c2ccnc(N)n2)c1F [Compound 186, N-{3-[5-(2-aminopyrimidin-4-yl)-2-(4-{4-[(1-{4-[(3S)-2,6-dioxopiperidin-3-yl]phenyl}piperidin-4-yl)methyl]piperazin-1-yl}phenyl)-1,3-thiazol-4-yl]-2-fluorophenyl}propane-1-sulfonamide] | > 500 nM | < 30% | > 500 nM | 30 to 70% | 10 to 50 nM | > 70% | > 500 nM | 30 to 70%
CCCS(=O)(=O)Nc1cccc(-c2nc(-c3ccc(N4CCN(CC5CCN(c6ccc([C@H]7CCC(=O)NC7=O)cc6)CC5)CC4)cc3)sc2-c2ccnc(N)n2)c1F [Compound 191, N-{3-[5-(2-aminopyrimidin-4-yl)-2-(4-{4-[(1-{4-[(3R)-2,6-dioxopiperidin-3-yl]phenyl}piperidin-4-yl)methyl]piperazin-1-yl}phenyl)-1,3-thiazol-4-yl]-2-fluorophenyl}propane-1-sulfonamide] | > 500 nM | 30 to 70% | 10 to 50 nM | 30 to 70% | < 10 nM | > 70% | > 500 nM | 30 to 70%
